According to patent US20050079526A1, “Methods and apparatuses for characterizing refolding and aggregation of biological molecules” (Affinium Pharmaceuticals, Inc., priority 2002, published 2005):

Legend:
[1] = system: the protein; assay: extent of unfolding of a protein measured by fluorescence versus time after temperature jump to 55° C. (rate of unfolding ku); type: binding; settings: fluorescence versus time at 55° C.; 5% ethanol; 10% glycerol; AND^+; compared with control solution; FIG. 6
Method: Multiple identical protein solutions were arranged in two-dimensional arrays of reservoirs which were incubated at different temperatures. These samples were alternatively illuminated with UV light and monochromatic red light. The fluorescence emitted and the light scattered at 90° were measured from the top of the arrangement. The fluorescence emitted and the light scattered intensity data were collected at intervals of time of incubation for all the temperatures simultaneously. In another example, the protein was incubated in 5% ethanol; 10% glycerol, AND^+ or a control solution and the extent of unfolding was measured at 55° C. A plots of fluorescence at the given temperature versus time was automatically built for all the samples, and the rate of unfolding ku was obtained from the fitted exponential grow portion of the curves for the proteins jumped to 55° C.

[2] = system: refolded Gaf domain of PDE10; assay: thermal aggregation (light scattering) of refolded protein, temperature of aggregation (Tag) with ligands; type: binding; settings: refolded Gaf domain of PDE10 in presence of ligand; light scattering versus temperature; FIG. 10
Method: The fluorescence emitted and the light scattered at 90° were measured from the top of the arrangement. The fluorescence emitted and the light scattered intensity data were collected at intervals of time of incubation for all the temperatures simultaneously.

Compound | effect on the stability of the protein (unfolding, ku) [1] | change of temperature of aggregation (Tag) [2]
NC(=O)c1ccc[n+]([C@@H]2O[C@H](COP(=O)([O-])OP(=O)(O)OC[C@H]3O[C@@H](n4cnc5c(N)ncnc54)[C@H](O)[C@@H]3O)[C@@H](O)[C@H]2O)c1 [AND^+] | strongest stabilizing effect | –
CCO [ethanol] | destabilizing effect or no effect at all | –
OCC(O)CO [Glycerol, glycerol] | stabilizing effect | –
Nc1nc2c(ncn2[C@@H]2O[C@@H]3COP(=O)(O)O[C@H]3[C@H]2O)c(=O)[nH]1 [cGMP] | – | increased the Tag
